Columns and labels:
[1] = In vitro micelle formation; assay type: physicochemical
From the text: When secreted into the small intestine, bile acids form micelles with dietary fats to aid in lipolysis and lipid absorption.

caudal lateral fat pads = assay: Fat pad necrosis in Zucker rats after a single injection; assay type: in vivo; details: for effectiveness: Zucker rats and clinical studies
Protocol: In the rats study, 8 rats received a single injection into the caudal lateral fat pads of 2.5 mL deoxycholic acid at 1%, 0.5%, 0.25%, or 0.1% concentrations, or 2.5 mL vehicle (0.9% benzyl alcohol in water).

[2] = test system: submental fat (SMF) deposits; assay: Example 2 placebo-controlled clinical study, SMF rating scale; assay type: in vivo, human; details: for change from baseline at week 16 compared to placebo in SMF rating scale score: significance (ANCOVA): every 4 weeks, up to 4 treatments
Protocol: A clinical study was conducted to evaluate the effectiveness of various doses of sodium deoxycholate in removing undesired submental fat (SMF) deposits. A multicenter, randomized, double-blind, placebo-controlled, parallel-group comparison of 3 concentrations of sodium deoxycholate (0.5, 1.0, and 2.0 percent w/v) in sterile water with 0.9% benzyl alcohol and placebo was conducted to determine the efficacy of reduction in SMF deposits. Placebo injection consisted of sterile water with 0.9% benzyl alcohol.
All subjects were to have up to 4 treatment sessions at intervals of no less than 4 weeks (±3 days) between treatments.
Eligible subjects were concurrently randomized into one of the following groups: • Placebo injected every 4 weeks for up to 4 treatments • 0.5% w/v sodium deoxycholate injected every 4 weeks for up to 4 treatments • 1.0% w/v sodium deoxycholate injected every 4 weeks for up to 4 treatments • 2.0% w/v sodium deoxycholate injected every 4 weeks for up to 4 treatments
85 subjects were randomized: 21 subjects to the 0.5% w/v sodium deoxycholate group, 20 subjects to the 1.0% w/v sodium deoxycholate group; 22 subjects to the 2.0% w/v sodium deoxycholate (DCA) group; and 22 subjects to the placebo group. 73 subjects completed the study.
Subject selection included males or non-pregnant, non-lactating females aged 25 to 65 years, inclusive, on the date of randomization, with SMF that was considered undesirable by the subject and graded by the investigator as 2 or 3 using the SMF rating scale, and a history of maintenance of a stable body weight, in the judgment of the investigator, for at least 6 months before randomization.

[3] = Phase 1/2 clinical studies with SDI: safety; assay type: in vivo, human
Protocol: (§1) A total of 274 subjects participated in 6 Phase ½ clinical studies that were conducted with SDI. Of these, 3 studies (n=179) evaluated SDI for the treatment of submental fat (SMF). Two studies evaluated SDI for the treatment of superficial lipoma. One study (SDI-08-10) evaluated the histological effects of SDI in subcutaneous abdominal tissue in subjects scheduled to undergo abdominoplasty.
(§2) The most commonly observed adverse events associated with the treatment area include pain, erythema, induration, swelling, bruising, and numbness. Less frequently, pruritus and paresthesia have been reported. […] The pharmacokinetics of SDI is linear, illustrating the predictable overall exposure. Plasma concentrations were transient with peak concentrations observed at approximately 15 to 30 minutes, returning to endogenous deoxycholate levels within 24 hours after dosing.

[4] = Pharmacokinetics of SDI in clinical studies (plasma deoxycholate); assay type: in vivo; details: human
Protocol: as §2

submental fat = assay: Earlier clinical studies of SDI for submental fat (SMFRS, SSRS); assay type: in vivo, human
Protocol: as §1
The SMF scale used to assess efficacy in clinical studies with SDI has been validated and shown to be reliable. […] The expected improvement from treatment with SDI is consistent with what patients who desire aesthetic changes would find satisfactory.

submental fat (SMF) = assay: Example 3 phase II placebo-controlled study (CR-SMFRS, PR-SMFRS, PR-SMFIS, MRI, other scales); assay type: in vivo, human; details: for number of patients having at least 1-point improvement (CR-SMFRS) vs placebo group: week 16, 24 and 32
Protocol: A clinical study was conducted to evaluate the effectiveness of various doses of sodium deoxycholate in removing undesired submental fat (SMF) deposits. This clinical study was multicenter, randomized, double-blind, placebo-controlled study of sodium deoxycholate injection (“SDI” or alternatively “ATX-101”) versus placebo for the reduction of localized subcutaneous fat in the submental area (SMF) using magnetic resonance imaging (MRI) and a battery of clinician- and subject-reported measurements.
Study Design: FIG. 2 depicts the study Design and Treatment Schema associated with this procedure. This was a multicenter, randomized, double-blind, placebo-controlled study in which approximately 120 subjects received either up to 50 mg SDI, up to 100 mg SDI, or placebo in a 1:1:1 ratio (5 mg/mL:10 mg/mL:placebo) as indicated below, to evaluate the safety and efficacy of fixed concentrations of SDI given in up to 50 0.2-mL injections in up to 6 treatment sessions. No subject received more than 10 mL in any treatment session, nor did any subject undergo more than 6 treatment sessions. The initial 30 subjects were enrolled in a 2:2:1 ratio (i.e., 12, 12 and 6 subjects per group, for the two SDI groups and placebo, respectively) and the remaining subjects were randomized to balance the enrollment (approximately 28, 28, and […] per group for the two SDI groups and placebo, respectively).
To measure changes in SMF volume and thickness, MRI acquisitions were repeated prior to each treatment session and post-treatment (4 and 12 weeks after the last treatment cycle). Before subjects completed each MRI visit, the MRI images were evaluated for acceptability.
Subjects who successfully completed screening and baseline evaluations received up to 50 injections (0.2 mL each for a maximum volume of 10 mL) per treatment session, depending upon size and configuration of the SMF. Treatment was given at 4-week (±5 days) intervals. Study material injection sites were positioned using a 1.0 cm grid, which is designed to achieve an appropriate distribution of injections across the submental area.
Study Material, Dose, and Route of Administration: SDI (sodium deoxycholate injection) was provided in a concentration of 5 mg/mL (0.5%) and 10 mg/mL (1.0%) in 10 mM sodium phosphate, 0.9% (weight per volume [w/v]) sodium chloride, and 0.9% (w/v) benzyl alcohol in water for injection (WFI). Each vial (for single use only) contained at least 2.0 mL of accessible material, accessed by means of sterile syringe and needle through a rubber stopper closure.
Evaluation of Efficacy: The effects of 5 mg/mL SDI and 10 mg/mL SDI transcutaneous injections in the submental area were evaluated relative to placebo by measuring the following: (1) the reduction of fat using Clinician-Reported Submental Fat Rating Scale (CR-SMFRS), Patient-Reported Submental Fat Rating Scale (PR-SMFRS), and Patient-Reported Submental Fat Impact Scale (PR-SMFIS); (2) the volume of SMF using MRI; and (3) the thickness of SMF using MM. The efficacy evaluation criteria included: Clinician-Reported Submental Fat Rating Scale (CR-SMFRS), Patient-Reported Submental Fat Rating Scale (PR-SMFRS), Patient-Reported Submental Fat Impact Scale (PR-SMFIS) scores, and Magnetic resonance imaging (MM).
Other Evaluations: The effects of 5 mg/mL SDI and 10 mg/mL SDI transcutaneous injections in the submental area, relative to placebo, for changes in skin laxity (SLRS), Subject Self Rating Scale (SSRS), and subject-reported outcome measures (Self-Ratings of Attractiveness, Derriford Appearance Scale [DAS], Body Image Quality of Life Inventory [BIQLI]), other Subject-Reported Questions, and Post-treatment Questions) were evaluated. Measurements of the thickness of fat in the submental area were made using calipers. Photographs were taken to document treatment effects. […]

[5] = test system: subcutaneous abdominal tissue; assay: Clinical trial: histological changes, efficacy and safety by concentration; assay type: in vivo, human
Protocol: These findings are consistent with the increased intensity of adverse effects at the higher concentrations and larger volumes administered (0.4 mL/injection) in clinical trials. […] Concentrations at or below 0.25% were not tested, as they are at or below the concentration necessary to form micelles. The formation of micelles is essential for lipolytic activity.
as §1

Q: With C[C@H](CCC(=O)[O-])[C@H]1CC[C@H]2[C@@H]3CC[C@@H]4C[C@H](O)CC[C@]4(C)[C@H]3C[C@H](O)[C@]12C.[Na+] [sodium deoxycholate] as the compound, how does the “minimal concentration at which micelle formation was observed” value [1] read?
A: 0.25 % w/v

Q: And the effectiveness (caudal lateral fat pads; 0.5% w/v)?
A: effective

Q: What about the effectiveness (caudal lateral fat pads; 1.0% w/v) of the same compound?
A: effective

Q: And the “effect compared with vehicle” value (caudal lateral fat pads; doses at and below 0.25%)?
A: no different than vehicle

Q: What about the “time points with statistically significant change from baseline in SMF rating scale score compared to placebo” value ([2]; 0.5% w/v) of the same compound?
A: weeks 8, 12, 16 and 24

Q: And the “change from baseline at week 16 compared to placebo in SMF rating scale score: significance (ANCOVA)” value (“change from baseline … significance (ANCOVA)” below) ([2]; 0.5% w/v)?
A: statistically significant

Q: And the “time points with statistically significant improvement in SMF rating scale score compared to placebo” value ([2]; 1.0% w/v)?
A: weeks 12, 16 and 24

Q: And the “change from baseline … significance (ANCOVA)” value ([2]; 1% w/v)?
A: statistically significant

Q: And the “relative effectiveness by visual assessment methods” value ([2]; 2.0% vs 1.0% or 0.5%)?
A: less effective than ATX-101 1.0% or 0.5%

Q: And the “time points with statistically significant improvement in SMF rating scale score compared to placebo” value ([2]; 2% w/v)?
A: only at week 24

Q: And the “change from baseline … significance (ANCOVA)” value ([2]; 2% w/v)?
A: not

Q: What about the “safety profile across studies” value ([3]; 0.5% vs 2.0% and 4.0%) of the same compound?
A: better safety profile than the higher concentrations

Q: What about the “safety profile across studies” value ([3]; 1.0% vs 2.0% and 4.0%) of the same compound?
A: better safety profile than the higher concentrations

Q: And the safety and tolerability ([3]; all concentrations in clinical studies)?
A: safe and well tolerated

Q: What about the adverse events ([3]; clinical studies, not systemic) of the same compound?
A: local, transient injection site reactions of mild to moderate intensity

Q: What about the “pharmacokinetics (linearity)” value [4] of the same compound?
A: linear

Q: And the “time of peak plasma concentrations” value [4]?
A: 15 to 30 min

Q: And the “time to return to endogenous deoxycholate levels after dosing” value [4]?
A: ≤ 24 h

Q: And the SSRS scores (submental fat; 0.5% [0.2 mL/1.0 cm])?
A: significantly better than placebo

Q: And the “change in SMFRS score at Week 16” value (submental fat; 0.5% [0.2 mL/1.0 cm])?
A: significantly better than placebo

Q: What about the SSRS scores (submental fat; 1.0% [0.2 mL/1.0 cm]) of the same compound?
A: significantly better than placebo

Q: And the “change in SMFRS score at Week 16” value (submental fat; 1.0% [0.2 mL/1.0 cm])?
A: significantly better than placebo

Q: What about the “CR-SMFRS change from baseline (FIG. 4)” value (submental fat (SMF); 0.5%) of the same compound?
A: marked reduction of submental fat as compared with placebo

Q: And the “SMF thickness and volume by MRI” value (submental fat (SMF); 0.5%)?
A: statistically significant reduction

Q: And the “SSRS, patient impact scores, patient impact questionnaire, improvement in appearance of the chin and satisfaction” value (submental fat (SMF); 0.5%)?
A: statistically significant changes

Q: What about the “number of patients having at least 1-point improvement (CR-SMFRS) vs placebo group” value (submental fat (SMF); 0.5%) of the same compound?
A: greater

Q: What about the “CR-SMFRS change from baseline (FIG. 4)” value (submental fat (SMF); 1.0%) of the same compound?
A: marked reduction of submental fat as compared with placebo

Q: What about the “SMF thickness and volume by MRI” value (submental fat (SMF); 1.0%) of the same compound?
A: statistically significant reduction

Q: What about the “SSRS, patient impact scores, patient impact questionnaire, improvement in appearance of the chin and satisfaction” value (submental fat (SMF); 1.0%) of the same compound?
A: statistically significant changes

Q: And the “statistical significance of CR-SMFRS reduction vs placebo” value (submental fat (SMF); 1.0%)?
A: statistically significant at most time points

Q: What about the “dose response by CR-SMFRS” value (submental fat (SMF); 1.0% and 0.5%) of the same compound?
A: good dose response

Q: What about the “dose response by PR-SMFRS” value (submental fat (SMF); 1.0% and 0.5%) of the same compound?
A: good dose response

Q: And the “SMF thickness and volume by MRI, compared with 0.5%” value (submental fat (SMF); 1.0% vs 0.5%)?
A: better dose response and greater reduction

Q: What about the “relative effectiveness by CR-SMFRS” value (submental fat (SMF); 1.0% vs 0.5%) of the same compound?
A: more effective than 0.5%

Q: What about the “relative effectiveness by PR-SMFRS” value (submental fat (SMF); 1.0% vs 0.5%) of the same compound?
A: more effective than 0.5%

Q: And the “number of patients having at least 1-point improvement (CR-SMFRS) vs placebo group” value (submental fat (SMF); 1.0%)?
A: greater

Q: What about the “1-grade reduction, CR-SMFRS” value (submental fat (SMF); 1.0%, week 16 and week 32) of the same compound?
A: Statistically significance was obtained

Q: What about the “1-grade reduction, PR-SMFRS” value (submental fat (SMF); 1.0%, week 16 and week 32) of the same compound?
A: Statistically significance was obtained

Q: What about the “2-grade reduction, PR-SMFRS” value (submental fat (SMF); 1.0%, week 32) of the same compound?
A: Statistically significance was obtained

Q: And the “CR-SMFRS with BMI as a standard (FIG. 18)” value (submental fat (SMF); ATX-101 treatments)?
A: significant submental fat reduction

Q: And the CR-SMFRS/body weight ratio (submental fat (SMF); FIGS. 20 and 21)?
A: decreased significantly

Q: What does the source list for C[C@H](CCC(=O)O)[C@H]1CC[C@H]2[C@@H]3CC[C@@H]4C[C@H](O)CC[C@]4(C)[C@H]3C[C@H](O)[C@]12C [deoxycholic acid]?
A: fat pad necrosis relative to 0.5% (caudal lateral fat pads; 1.0% vs 0.5%, single 2.5 mL injection): approximately 2.5 times; histological changes ([5]; 2.0%): marked necrosis, resulting in lipid lake formation and vessel damage; histological changes ([5]; 4.0%): marked necrosis, resulting in lipid lake formation and vessel damage

Source: patent publication US12161653B2, “Treatment of submental fat” (Allergan Sales, LLC, priority 2011, dated 2024)
